Measurements reported in patent US6949522B2, “β-2′- or 3′-halonucleosides” (Pharmasset, Inc., priority 2001, dated 2005).
Read-outs that look alike come from different tables or passages of the source.

Columns and labels:
HIV-1 LAI (wild type) = test: HIV-1 Q-RT-PCR assay in human PBM cells, strain LAI; format: cell-based; details: 5 days, viral RNA reduced by 90%
Protocol: Human PBM cells (1×10^6 cells/T25 flask) were PHA stimulated for 2 or 3 days, and infected with either a wild type (LAI and xxBRU) or a 3TC-resistant (xxBRU 184V) HIV-1 strain at 100 TCID50, as previously described (27). The culture was kept for 5 days in presence of test compounds at serial 1-log dilutions. Subsequently, human PBM cells were removed from the culture supernatant by centrifugation (10 minutes, 400×g, 4° C.). This clarified supernatant was tested either in the RT-assay, or in the Q-RT-PCR assay.
Viral RNA present in the culture supernatant was prepared using commercially available columns (QIAamp Viral RNA mini Kit, Qiagen, Valencia, Calif.). Viral RNA was detected in real-time by monitoring increases in fluorescence signal that resulted from degradation of a quenched fluorescent probe molecule following the hybridization of the probe to the arnplified viral DNA (TaqMan 7700 chemistry, Applied Biosystems, Foster City, Calif.). The TaqMan probe and primers were designed using the Primer Express software (Applied Biosystems); they cover highly conserved sequences complementary to an 81 base pair long fragment from the HIV-1 RT gene between codon 230 and 257 of the group MHIV-1 genome; • probe 5′-6FAM-[…]-TAMRA-3′ (Sequence 1) • sense primer: 5′-[…]-3′ (Sequence 2); and • antisense primer 5′-[…]-3′ (Sequence 3).
A total of 5 μL RNA was RT-amplified using reagents and conditions as described by the manufacturer (Applied Biosystems). […] Copy numbers were calibrated using the Roche Amplicor HIV-1 Monitor test™ (Roche Diagnostics, Branchburg, N.J.) on a 1-log dilution series of a clinical HIV-1 genotype B isolate (attenuated in vitro to obtain a high viral load). The 10-6 diluted sample became positive at threshold cycle (Ct=PCR cycle threshold where a sample becomes detectable)=35.52, which corresponded to 1,410 copies/mL in the Roche monitor HIV-1 version II assay. When validated over a dynamic range of 3 logs of virus, there was excellent correlation (r2˜1) between the two methodologies. […] Therefore, the currently designed primer and probe set allowed reliable quantification of both clinical samples and HIV-1 in vitro preparations.
HIV-1 present in culture supernatant fluids was quantified by two different methodologies: i) the Q-RT-PCR with read-out in log copies/mL; and ii) the endogenous viral RT assay on cell supernatant with read-out in log counts per minute/mL (CPM/mL). Upon addition of antiviral compounds to the culture media, a dose-related decrease in virus production was observed. Although the two methodologies measured different parameters (viral RNA versus active RT enzyme), results were not markedly different from each other. The HIV-1 Q-RT-PCR results were compared with a previously established cell-based antiviral drug evaluation assay (endogenous HIV-1 RT polymerization activity in cell supematant)(27).

BVDV (strain NADL) = test: BVDV Q-RT-PCR assay in MDBK cells; format: cell-based, bovine viral diarrhea virus; details: read-out: BVDV assay Q-PCR EC90
Protocol: Madin-Darby Bovine Kidney (MDBK) cells were maintained in DMEM/F12 supplemented with 10% heat-inactivated horse serum at 37° C. in a humidified, 5% CO2 atmosphere. Cells were seeded in 96-well plates at 5×10^3 cells/wcll and incubated for 1 hour. BVDV (strain NADL) was used to infect the cells in monolayer at MOI 0.02. After 45 minutes of infection, the viral inoculum was removed and the cells were washed twice. Media or media containing test compound was added to these cells, followed by 24 hour incubation. Cell supernatant fluids were collected, clarified by centrifugation (2 minutes, 3,000 g, room temperature) and viral RNA was prepared (QIAamp Viral RNA mini Kit, Qiagen). Viral RNA was detected in real-time RT-PCR.

HBV = HBV Q-PCR assay in HepAD38 (AD38) cells; format: cell-based, hepatitis B virus; details: for EC90: read-out: HBV assay Q-PCR EC90
Protocol: The HepAD38 cell line replicates HBV under conditions that can be regulated with tetracycline (12, 15). In the presence of this drug, the cell supernatant is virtually free of viral DNA, but upon the removal of tetracycline from the culture medium, these cells secrete virus-like particle into the supernatant (12). HepAD38 cells were seeded at 5×10^4 cells/well in a 96-well plate in seeding medium (DMEM/F12+10% FBS, 50 μg/mL penicillin, 50 μg/mL streptomycin, 100 μg/mL kanamycin, 400 μg/mL G418, and 0.3 μg/mL tetracycline) and incubated for 2 days at 37° C. in a 5% CO2 humid atmosphere. The seeding media was removed, and cells were washed 3 times with PBS. Cells were then incubated with 200 μL assay medium (DMEM/F12+10% FBS+P/S/K) containing either no compound, test compound, or control drugs at 10 μM. After a 5-day incubation, the cell supernatant was collected and stored at −70° C. until HBV DNA was quantified. HBV DNA was extracted from supernatant using QiaAmp DNA blood Mini kit (Qiagen) and nucleic acids eluted in 200 μL. Viral DNA was detected in Q-PCR. The TaqMan probe and primers were designed using the Primer Express software (Applied Biosystems) and cover highly conserved sequences complementary to the DNA sequences present in HBsAg (24). A total of 5 μL DNA was amplified using reagents and conditions as described by the manufacturer (Applied Biosystems). […]

rRNA gene = format: cell-based, human; details: HepG2, 10 μM, 7 days
Protocol: Low passage number HepG2 cells, obtained from American Tissue Culture Collection (ATCC, Manassas, Va.) were seeded at 5,000 cells/well in collagen-coated 96-well plates. Test compounds were added to the media to obtain a final concentration of 10 μM. On culture day 7, cellular nucleic acids were prepared by using commercially available columns (RNeasy 96 kit, Qiagen).
The rRNA gene primers and probes were purchased from Applied Biosystems. […] The comparative Ct method uses arithmetic formulas in which the amount of target (COXII gene) is normalized to an endogenous reference (β-actin gene or rRNA gene) and is relative to a calibrator (no drug control at day 7). The arithmetic formula for this approach is given by 2-ΔΔCt (User bulletin # 2, Applied Biosystems).
In order to study the consequences of possible inhibitory effects of these compounds on host DNA polymerases, nuclear and rnitochondrial DNA levels were quantified and compared to no-treatment controls. Cells were incubated for 7 days with 10 μM of each compound, followed by total nucleic acid extractions and multiplex Q-PCR of the rRNA gene and the mitochondrial COXII gene. Nucleic acids from cells exposed to the control compounds were also amplified in multiplex for mitDNA and the β-actin gene.

[1] = MDBK cells, 24 hour incubation, viral RNA in supernatant
[2] = AD38 cells, 5-day incubation, HBV DNA in supernatant
[3] = Human immunodeficiency virus 1, PBMC, 120 h
[4] = Bovine viral diarrhea virus isolates and strains, MDBK cells, 24 hour incubation, viral RNA in supernatant

Nc1nc(=O)n([C@H]2S[C@@H](CO)C=C2F)cc1F [Compound L-18, (+)-1-[(1S,4R)-2,3-dideoxy-2,3-didehydro-2-fluoro-4-thio-β-L-ribofuranosyl]-5-fluoro-cytosine]
EC90 (HIV-1 LAI (wild type)): 4.3 µM | EC90 (BVDV (strain NADL); [1]): > 200 µM | EC90 (HBV; [2]): > 100 µM | Average ΔCt ± SD rDNA (rRNA gene): 0.10 ± 0.44

Nc1nc(=O)n([C@@H]2S[C@H](CO)C=C2F)cc1F [Compound D-18, (−)-1-[(1S,4R)-2,3-dideoxy-2,3-didehydro-2-fluoro-4-thio-β-D-ribofuranosyl]-5-fluorocytosine]
EC90 (HIV-1 LAI (wild type)): > 100 µM | EC90 (BVDV (strain NADL); [1]): > 200 µM | EC90 (HBV; [2]): > 100 µM | Average ΔCt ± SD rDNA (rRNA gene): −0.45 ± 0.60

Nc1ccn([C@@H]2C=C(F)[C@H](CO)O2)c(=O)n1 [Compound 10, 1-(2,3-Dideoxy-3-fluoro-β-L-glycero-pent-2-eno-furanosyl)cytosine]
EC90 (HIV-1 LAI (wild type); [3]): 50.6 µM | EC90 (BVDV (strain NADL); Bovine viral diarrhea virus isolates and strains, MDBK, 24 h): > 200 µM | EC90 (HBV; Hepatitis B virus, HePAD38, 120 h): ≥ 100 µM | Average ΔCt ± SD rDNA (rRNA gene): −0.08 ± 0.50

Nc1ccn([C@@H]2C=C(F)[C@H](CO)O2)c(=O)n1 [Compound 23, 1-(2,3-Didcoxy-3-fluoro-β-L-glycero-pent-2-eno-furanosyl)cytosine]
EC90 (HIV-1 LAI (wild type)): 0.92 µM | EC90 (BVDV (strain NADL); [1]): > 200 µM | EC90 (HBV; [2]): 1 µM | Average ΔCt ± SD rDNA (rRNA gene): −0.51 ± 0.35

Cc1cn([C@H]2C[C@H](N=[N+]=[N-])[C@@H](CO)O2)c(=O)[nH]c1=O [AZT, 3′-azido-3′-deoxythymidine, reference compound]
EC90 (HIV-1 LAI (wild type); [3]): 0.03 µM | EC90 (BVDV (strain NADL); [4]): > 200 µM | Average ΔCt ± SD rDNA (rRNA gene): 0.86 ± 0.55 | Average ΔΔCt ± SD rDNA-β-actin (rRNA gene): 0.76 ± 0.87

Nc1ccn([C@H]2S[C@@H](CO)C=C2F)c(=O)n1 [Compound L-17, (+)-1-[(1S,4R)-2,3-dideoxy-2,3-didehydro-2-fluoro-4-thio-β-L-ribofuranosyl]-cytosine]
EC90 (HIV-1 LAI (wild type)): 4.1 µM | EC90 (BVDV (strain NADL); [1]): > 200 µM | EC90 (HBV; [2]): > 100 µM | Average ΔCt ± SD rDNA (rRNA gene): 0.49 ± 0.77

Nc1ccn([C@@H]2S[C@H](CO)C=C2F)c(=O)n1 [Compound D-17, (−)-1-[(1S,4R)-2,3-dideoxy-2,3-didehydro-2-fluoro4-thio-β-D-ribofuranosyl]-cytosine]
EC90 (HIV-1 LAI (wild type)): 24.6 µM | EC90 (BVDV (strain NADL); [1]): > 200 µM | EC90 (HBV; [2]): > 100 µM | Average ΔCt ± SD rDNA (rRNA gene): 0.81 ± 0.60

Nc1ccn([C@@H]2CS[C@H](CO)O2)c(=O)n1 [Compound 3TC, (−)-β-2′,3′-dideoxy-3′-thiacytidine, reference compound]
EC90 (HIV-1 LAI (wild type); [3]): 0.37 µM | EC90 (BVDV (strain NADL); [4]): > 200 µM | reduction of release of HBV DNA in the supernatant (HBV; 10 μM, 5 days, HepAD38 cells): ~1.5 log | EC90 (HBV; [2]): 3 µM | EC90 (HBV; Hepatitis B virus, HePAD38, 120 h, AD38 cells, 5-day incubation, HBV DNA in supernatant): 2.9 µM | Average ΔCt ± SD rDNA (rRNA gene): 0.47 ± 0.51 | Average ΔΔCt ± SD rDNA-β-actin (rRNA gene): 0.36 ± 0.66
